# Test results: ChEMBL document CHEMBL1201862, “PubChem BioAssay data set” (2004)
#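 48-hour exposure; five concentrations; linearly interpolated endpoints. Abbreviation: GI50, concentration required for 50% inhibition of growth.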 Activity calls are given as the source filed them. No stated cut-off is given here; in the data, active = GI50 up to about 1.1 µM and inactive = higher.
# Tests used:
# Test in all cases: growth of human tumour cells (NCI), 48 h
# [1] = system: UACC-62
# [2] = system: HCT-15
# [3] = system: Malme-3M
# [4] = system: SK-MEL-5
# [5] = system: SW-620
# [6] = system: MDA-MB-231
# [7] = system: 786-0
# [8] = system: A498
# [9] = system: Hs-578T
# [10] = system: SN12C
# [11] = system: UACC-257
# [12] = system: M14
# [13] = system: SNB-19
# [14] = system: MDA-N
# [15] = system: OVCAR-4
# [16] = system: NCI-H226
# [17] = system: SR
# [18] = system: CCRF-CEM
Structure (SMILES),GI50 [1],GI50 [2],GI50 [3],GI50 [4],GI50 [5],GI50 [6],GI50 [7],GI50 [8],GI50 [9],GI50 [10],GI50 [11],GI50 [12],GI50 [13],GI50 [14],GI50 [15],GI50 [16],GI50 [17],GI50 [18]
CCCC1c2c(ccc3ccccc23)Oc2ccc3ccccc3c21,84.9 µM (inactive),31.6 µM,57.3 µM (inactive),34.7 µM (inactive),82.4 µM (inactive),31.7 µM (inactive),> 100 µM (inactive),23.7 µM (inactive),> 100 µM (inactive),65.3 µM (inactive),24.2 µM (inactive),74 µM (inactive),> 100 µM (inactive),39.6 µM (inactive),> 100 µM (inactive),60.3 µM (inactive),,
CCOC(=O)C1=C(Nc2cccc(OC)c2)OCC1=O,> 100 µM (inactive),> 100 µM,,> 100 µM (inactive),> 100 µM (inactive),> 100 µM (inactive),> 100 µM (inactive),27.7 µM (inactive),> 100 µM (inactive),,> 100 µM (inactive),> 100 µM (inactive),> 100 µM (inactive),,> 100 µM (inactive),> 100 µM (inactive),> 100 µM (inactive),> 100 µM (inactive)
NNc1nnc(CCCCCCCCc2nnc(NN)n2N)n1N,,> 100 µM,,> 100 µM (inactive),> 100 µM (inactive),41.5 µM (inactive),33.1 µM (inactive),> 100 µM (inactive),,> 100 µM (inactive),> 100 µM (inactive),> 100 µM (inactive),64.3 µM (inactive),> 100 µM (inactive),> 100 µM (inactive),> 100 µM (inactive),,> 100 µM (inactive)
COc1ccc(-c2nc(-c3cnccn3)n(C3OC(CO)C(O)C(O)C3O)n2)cc1 (stereo not drawn),> 100 µM (inactive),> 100 µM,,> 100 µM (inactive),> 100 µM (inactive),> 100 µM (inactive),> 100 µM (inactive),,,> 100 µM (inactive),> 100 µM (inactive),> 100 µM (inactive),> 100 µM (inactive),> 100 µM (inactive),> 100 µM (inactive),,> 100 µM (inactive),> 100 µM (inactive)
CC(=O)NNC1=NN(C(C)=O)C2(S1)C(=O)Nc1ccccc12 (stereo not drawn),> 100 µM (inactive),> 100 µM,> 100 µM (inactive),> 100 µM (inactive),> 100 µM (inactive),> 100 µM (inactive),> 100 µM (inactive),,,> 100 µM (inactive),> 10 µM (inactive),> 100 µM (inactive),> 100 µM (inactive),> 100 µM (inactive),> 100 µM (inactive),> 100 µM (inactive),> 100 µM (inactive),> 100 µM (inactive)
COc1ccc2c(c1)c1c(n2CCN(C)C)-c2cccc(OC)c2CC1,15.2 µM (inactive),15.3 µM,,10.4 µM (inactive),> 10 µM (inactive),13.7 µM (inactive),22.3 µM (inactive),19.1 µM (inactive),16.3 µM (inactive),13.7 µM (inactive),17.3 µM (inactive),11 µM (inactive),18.8 µM (inactive),11 µM (inactive),15.8 µM (inactive),4.49 µM (inactive),,2.65 µM (inactive)
CCCCCCOc1ccc(NC2=C(Cl)C(=O)c3cccnc3C2=O)cc1,1.07 µM (active),1.79 µM,2.3 µM (inactive),1.11 µM (active),1.54 µM (inactive),,1.48 µM (inactive),> 10 µM (inactive),8.02 µM (inactive),1.68 µM (inactive),2.25 µM (inactive),1.3 µM (inactive),2.7 µM (inactive),1.59 µM (inactive),,1.74 µM (inactive),,1.65 µM (inactive)
Cc1ccc(NC(=S)C#N)cc1Cl,37.9 µM (inactive),23.3 µM,23.4 µM (inactive),24 µM (inactive),48.8 µM (inactive),88.3 µM (inactive),45.2 µM (inactive),26.7 µM (inactive),,58.5 µM (inactive),46.3 µM (inactive),36.9 µM (inactive),,41.7 µM (inactive),,24.3 µM (inactive),27 µM (inactive),25.5 µM (inactive)
COc1cc2c3c4[n+](cc2c(OC)c1OC)CCC4CCC3 (stereo not drawn),> 100 µM (inactive),> 100 µM,20.4 µM (inactive),21.6 µM (inactive),> 100 µM (inactive),> 100 µM (inactive),> 100 µM (inactive),> 100 µM (inactive),> 100 µM (inactive),> 100 µM (inactive),57.3 µM (inactive),> 100 µM (inactive),48.9 µM (inactive),> 100 µM (inactive),> 100 µM (inactive),> 100 µM (inactive),,> 62.1 µM (inactive)
Cc1c2c(c(C)n1-c1ccccc1)C(=O)N(CCN1CCN(c3cccc(C(F)(F)F)c3)CC1)C2=O,> 100 µM (inactive),17.7 µM,> 100 µM (inactive),5.25 µM (inactive),,> 100 µM (inactive),71.8 µM (inactive),> 100 µM (inactive),> 100 µM (inactive),45 µM (inactive),7.67 µM (inactive),> 100 µM (inactive),> 100 µM (inactive),71.1 µM (inactive),7.35 µM (inactive),> 100 µM (inactive),,
OCc1c2c(cc3c1CC1(C3)Cc3cc4c(c(CO)c3C1)CCC4)CCC2,16.7 µM (inactive),18 µM,15.3 µM (inactive),5.81 µM (inactive),,15.2 µM (inactive),14.2 µM (inactive),16.4 µM (inactive),17.5 µM (inactive),16.9 µM (inactive),11.6 µM (inactive),18 µM (inactive),,15.1 µM (inactive),10.1 µM (inactive),11.6 µM (inactive),,8 µM (inactive)
CC(=O)c1ccc(N2CCN(C3=CC(=O)c4c(O)ccc(O)c4C3=O)CC2)cc1,31.4 µM (inactive),5.41 µM,4.36 µM (inactive),> 10 µM (inactive),35.6 µM (inactive),13.4 µM (inactive),> 100 µM (inactive),> 100 µM (inactive),,,> 100 µM (inactive),40.7 µM (inactive),62.4 µM (inactive),,> 100 µM (inactive),,22.5 µM (inactive),15.2 µM (inactive)
N#Cc1cc(Sc2ccc(N)c(C#N)c2)ccc1N,14.8 µM (inactive),9.51 µM,2.8 µM (inactive),15.3 µM (inactive),13.3 µM (inactive),40.7 µM (inactive),17.6 µM (inactive),43.8 µM (inactive),12.6 µM (inactive),48.4 µM (inactive),26.9 µM (inactive),11.9 µM (inactive),14.8 µM (inactive),4.03 µM (inactive),20.4 µM (inactive),19.6 µM (inactive),,9.64 µM (inactive)
O=C(NCC(O)COc1ccccc1)c1ccccc1O (stereo not drawn),55 µM (inactive),> 100 µM,> 100 µM (inactive),63.5 µM (inactive),> 100 µM (inactive),> 100 µM (inactive),> 100 µM (inactive),> 100 µM (inactive),,> 100 µM (inactive),> 100 µM (inactive),> 100 µM (inactive),91 µM (inactive),> 100 µM (inactive),> 100 µM (inactive),> 100 µM (inactive),87.7 µM (inactive),40.5 µM (inactive)
N#Cc1ccc2oc3ccc(C#N)cc3c(=O)c2c1,19 µM (inactive),> 100 µM,24.2 µM (inactive),5.6 µM (inactive),51.5 µM (inactive),> 100 µM (inactive),25.8 µM (inactive),14.8 µM (inactive),,> 100 µM (inactive),> 100 µM (inactive),> 100 µM (inactive),27.9 µM (inactive),16.4 µM (inactive),18 µM (inactive),35.9 µM (inactive),41.6 µM (inactive),31.8 µM (inactive)
CC(C)(C)c1cc2c(c(C(C)(C)C)c1O)CC(=O)O2,23.2 µM (inactive),45.9 µM,,17.1 µM (inactive),42.4 µM (inactive),24.5 µM (inactive),26.5 µM (inactive),32.1 µM (inactive),26.4 µM (inactive),34.8 µM (inactive),24.6 µM (inactive),25.8 µM (inactive),34.7 µM (inactive),34.9 µM (inactive),27.7 µM (inactive),30.8 µM (inactive),,29.6 µM (inactive)
CNc1ncnc2c1nc(NC1CCCC1)n2C1OC(CO)C(O)C1O (stereo not drawn),> 100 µM (inactive),> 100 µM,> 100 µM (inactive),> 100 µM (inactive),> 100 µM (inactive),> 100 µM (inactive),> 100 µM (inactive),> 100 µM (inactive),,> 100 µM (inactive),,> 100 µM (inactive),> 100 µM (inactive),> 100 µM (inactive),> 100 µM (inactive),,,
Cc1ccc(S(=O)(=O)NC(=O)C2=C3SCCN3C(=O)N(S(=O)(=O)c3ccc(C)cc3)C2c2ccccc2)cc1 (stereo not drawn),37.3 µM (inactive),> 100 µM,40.6 µM (inactive),,47.3 µM (inactive),36.6 µM (inactive),51.9 µM (inactive),> 100 µM (inactive),48.4 µM (inactive),49.9 µM (inactive),78.5 µM (inactive),61 µM (inactive),34.8 µM (inactive),,58.6 µM (inactive),> 100 µM (inactive),31.4 µM (inactive),19.4 µM (inactive)
